Patent US20260217701A1, “SELECTIVE BET INHIBITORS AND USES THEREOF” (Tay Therapeutics Limited, priority 2022, published 2026)
Where “and” joins values, the source holds several entries; their conditions need not be identical. Identical values can stand only once. Entries after “also recorded” stand apart in the source; their conditions may differ.

Key:
[1] = tested on: renal fibrosis (UUO); test: Unilateral Urethral Obstruction (UUO) model of renal fibrosis: clinical histopathology scores; type: in vivo, rats; parameters: key to Glomerulosclerosis clinical score / Interstitial nephritis clinical score / Collagen fiber deposition clinical score / Nephropathy clinical score: 0=no more or absence; 1=low; 2=moderate; 3=high; 4=severe
Procedure: Starting on Day 0, animals in group 2 were administered daily doses of the vehicle for 14 days. Starting on Day 0, animals in group 3 were administered daily doses of Compound A (10 mg/kg) for 14 days. A design of the UUO study is depicted in FIG. 24.
Blind clinical nephropathy scores were conducted for all animals in the study. Glomerulosclerosis, interstitial nephritis, collagen fiber deposition, and nephropathy were each assessed for all experimental rats, and a total clinical score was determined for each rat. The scoring system represented the degree or percentage of lesions in the whole kidney. Clinical score assessments were performed on Day 14.

[2] = UUO study: clinical observations; type: in vivo; conditions: UUO rats; 10 mg/kg
[3] = tested on: hydroxyproline; test: Bleomycin IPF model: hydroxyproline content in lung lysates; type: in vivo, C57BI/6J mice; parameters: Hydroxyproline Levels, Mean: unit not given here
Procedure: Male C57BI/6J mice, aged 12 weeks with an approximate weight of 25-30 g were obtained from Jackson Laboratories (Bar Harbor, ME). Animals were acclimated for two weeks prior to study initiation, and were randomized into the experimental groups outlined in Table 32.
Intratracheal (IT) administration of Bleo or PBS control was conducted at the start of the study (Day 0). […] Animals were weighed on Day 0, and indexed boluses of PBS control (Group 1) or Bleo (Groups 2-6) were delivered by IT administration.
Following administration of Bleo, animals (n=10/group) were included in the study if they met the following guidelines on Day 7: (1) a predictable 5% loss in body weight, and (2) the presence of fibrotic pulmonary lesions, detected by micro-CT imaging. 10 animals from Group 1 additionally proceeded as controls. Animals that continued in the study on Day 7 received an oral gavage (OG) administration of PBS, Compound A (1 mg/kg, 3 mg/kg, 10 mg/kg), or Pirfenidone (300 mg/kg), as outlined in Table 31 in 25 μL boluses every other day (QOD), starting on Day 7. Compound A was formulated in 5% (v/v) DMSO/15% (v/v) PEG 400/80% (v/v) E-TPGS in purified water.
Animals were euthanized on Day 21 following Micro-CT imaging, and the right lung was collected for biochemical analysis, and the left lung was inflation-fixed for morphological assessments. A resection of the right lung was weighed and homogenized to determine total hydroxyproline levels by colorimetric assay, and the remaining lung lysate was saved for future analyses.

[4] = SLE (lupus) model: body weight; type: in vivo, MRL/MpJ-Faslpr mice
Procedure: (§1) Female MRL/MpJ-Faslpr mice (The Jackson Laboratory) were used to assess the efficacy of Compound A in treating lupus. Starting when animals were 10 weeks of age, protein concentration in urine was measured using urine dipsticks.
(§2) At the start of the study, each group in the study had two animals that were 9 weeks old, and all others were 10 weeks old. Dosing of all animals with the test compounds began when the older animals were 11 weeks old. […] […] Dosing was at a consistent time each dosing day throughout the study.
(§3) Compound A may be formulated as illustrated in Experimental Method A (see Table 2E.). […] A stock solution of Compound A in DMSO (stock solution concentration of Compound A of 40 mg/mL) was prepared and aliquots for weekly preparations were frozen at −20° C. On each preparation day, a stock solution aliquot was thawed and diluted with other vehicle components to the desired concentration. Formulated Compound A and vehicle were at room temperature for dosing.
(§4) The study began when the older animals were 11 weeks old, and concluded when the older animals were 19 weeks old. Body weight was recorded once a week, with the exception of two weight measurements taken the first week of the study (when the older animals were 11 weeks old). Proteinuria was measured in the urine of animals with urine dipsticks once a week, starting when the older animals were 10 weeks old. […] Blood samples were taken retro-orbitally at the start of the study to establish a baseline (15 animals, 3 per group), and when the older animals were 16 weeks (all animals) and when animals were 19 weeks (all animals) at the conclusion of the study. Blood urea nitrogen (BUN) was measured in all animals at study termination in blood samples. After blood collection, animals were euthanized, perfused with PBS, and the left kidneys were collected and weighed and fixed in 10% buffered formalin. Left kidneys were then processed to a formalin-fixed, paraffin-embedded (FFPE) block, and histology was analyzed in Periodic Acid-Schiff-stained sections (1 section per slide), using the criteria described in Alperovich et al., Lupus, 16:18-24 (2007). Right kidneys were weighed and snap-frozen at −80° C. Spleens were also collected and weighed. SLE in animals treated with a BET inhibitor and vehicle.

[5] = tested on: lupus; test: SLE (lupus) model: kidney histology lesion scores; type: in vivo, MRL/MpJ-Faslpr mice; conditions: for Total Glomerular Lesion (mean score) / Total Glomerular Lesion (table title: Mean Total Kidney Lesion Scores) / Total Tubular and Interstitial Lesion (mean score) / Mean total glomerular lesion score / Mean total kidney lesion score / Mean total tubular and interstitial lesion score: Week 19
Procedure: as §1, §2, §3, §4

[6] = UUO rats, individual animals 1-8

## Cn1cc(-c2ccccc2)c(-c2cn(C)c(=O)c3[nH]c(-c4cnn(C(F)(F)F)c4)cc23)cc1=O [Compound A, 6-methyl-4-(1-methyl-2-oxo-5-phenyl-1,2-dihydropyridin-4-yl)-2-(1-(trifluoromethyl)-1H-pyrazol-4-yl)-1,6-dihydro-7H-pyrrolo[2,3-c]pyridin-7-one]
[1]; UUO + Compound A (10 mg/kg) relative to sham treated animals
  Total histology score (FIG. 26D): marked decrease in total histology score
[1]; [6]
  Collagen fiber deposition clinical score: 1 (4×) and 2 (3×) and 3
  Glomerulosclerosis clinical score: 0
  Interstitial nephritis clinical score: 2 (4×) and 3 (4×)
  Nephropathy clinical score: 1 and 2 (7×)
  Total score: 4 and 7 (3×) and 5 (3×) and 8
[1]; UUO rats, 10 mg/kg PO QD, 10 mg/kg
  Clinical histopathology scores / histological indicators of fibrosis relative to UUO + vehicle: reduced levels of interstitial nephritis, collagen fiber deposition, and nephropathy, as well as total clinical scores; also recorded: reduced the severity of all histological indicators of fibrosis; also recorded: ameliorates clinical symptoms associated with UUO
[2]
  Clinical observations assessed daily: soft stools on just one study day
[3]; Bleo + Compound A (1 mg/kg) OG QOD from D7
  Hydroxyproline Levels, Mean: 0.05281
[3]; Bleo + Compound A (3 mg/kg) OG QOD from D7
  Hydroxyproline Levels, Mean: 0.05418
[3]; Bleo + Compound A (10 mg/kg) OG QOD from D7
  Hydroxyproline Levels, Mean: 0.04627
[3]; Day 21, 1 mg/kg and 3 mg/kg
  Hydroxyproline levels relative to Group 2: reduced levels of hydroxyproline
[3]; Day 21, 10 mg/kg
  Hydroxyproline levels, lower than IPF control group (Bleo+Saline): about 60.4%
[4]; 1 mg/kg
  Relative end body weight (% of Week 11) ± SEM: 114.5% ± 1.5%
[4]; 1 mg/kg and 10 mg/kg
  Weight gain relative to control groups: improved weight gains relative to the control groups
[4]; 3 mg/kg
  Relative end body weight (% of Week 11) ± SEM: 110.7% ± 2.1%
[4]; 10 mg/kg
  Relative end body weight (% of Week 11) ± SEM: 114.4% ± 1.6%
[4]; Compound A 1 mg/kg PO QD, Week 11
  Mean Body Weight: 35.2 g
[4]; Compound A 1 mg/kg PO QD, Week 12
  Mean Body Weight: 36.4 g
[4]; Compound A 1 mg/kg PO QD, Week 13
  Mean Body Weight: 37.6 g
[4]; Compound A 1 mg/kg PO QD, Week 14
  Mean Body Weight: 38.5 g
[4]; Compound A 1 mg/kg PO QD, Week 15
  Mean Body Weight: 38.9 g
[4]; Compound A 1 mg/kg PO QD, Week 16
  Mean Body Weight: 40.0 g
[4]; Compound A 1 mg/kg PO QD, Week 17
  Mean Body Weight: 39.5 g
[4]; Compound A 1 mg/kg PO QD, Week 18
  Mean Body Weight: 39.7 g
[4]; Compound A 1 mg/kg PO QD, Week 19
  Mean Body Weight: 40.2 g
[4]; Compound A 3 mg/kg PO QD, Week 11
  Mean Body Weight: 35.0 g
[4]; Compound A 3 mg/kg PO QD, Week 12
  Mean Body Weight: 35.0 g
[4]; Compound A 3 mg/kg PO QD, Week 13
  Mean Body Weight: 36.5 g
[4]; Compound A 3 mg/kg PO QD, Week 14
  Mean Body Weight: 37.4 g
[4]; Compound A 3 mg/kg PO QD, Week 15
  Mean Body Weight: 37.9 g
[4]; Compound A 3 mg/kg PO QD, Week 16
  Mean Body Weight: 38.7 g
[4]; Compound A 3 mg/kg PO QD, Week 17
  Mean Body Weight: 38.6 g
[4]; Compound A 3 mg/kg PO QD, Week 18
  Mean Body Weight: 38.1 g
[4]; Compound A 3 mg/kg PO QD, Week 19
  Mean Body Weight: 38.6 g
[4]; Compound A 10 mg/kg PO QD, Week 11
  Mean Body Weight: 35.1 g
[4]; Compound A 10 mg/kg PO QD, Week 12
  Mean Body Weight: 35.6 g
[4]; Compound A 10 mg/kg PO QD, Week 13
  Mean Body Weight: 37.1 g
[4]; Compound A 10 mg/kg PO QD, Week 14
  Mean Body Weight: 37.8 g
[4]; Compound A 10 mg/kg PO QD, Week 15
  Mean Body Weight: 38.8 g
[4]; Compound A 10 mg/kg PO QD, Week 16
  Mean Body Weight: 39.3 g
[4]; Compound A 10 mg/kg PO QD, Week 17
  Mean Body Weight: 39.3 g
[4]; Compound A 10 mg/kg PO QD, Week 18
  Mean Body Weight: 39.4 g
[4]; Compound A 10 mg/kg PO QD, Week 19
  Mean Body Weight: 39.9 g
[5]; Compound A 1 mg/kg PO QD
  Total Glomerular Lesion (mean score): 3.9
  Total Glomerular Lesion (table title: Mean Total Kidney Lesion Scores): 5.1
  Total Tubular and Interstitial Lesion (mean score): 1.2
[5]; Compound A 3 mg/kg PO QD
  Total Glomerular Lesion (mean score): 2.7
  Total Glomerular Lesion (table title: Mean Total Kidney Lesion Scores): 3.8
  Total Tubular and Interstitial Lesion (mean score): 1.1
[5]; Compound A 10 mg/kg PO QD
  Total Glomerular Lesion (mean score): 1.1
  Total Glomerular Lesion (table title: Mean Total Kidney Lesion Scores): 1.6
  Total Tubular and Interstitial Lesion (mean score): 0.5
[5]; 1 mg/kg
  Mean total glomerular lesion score: about 3.9
  Mean total kidney lesion score: about 5.1
  Mean total tubular and interstitial lesion score: about 1.2
[5]; 3 mg/kg
  Mean total glomerular lesion score: about 2.7
  Mean total kidney lesion score: about 3.8
  Mean total tubular and interstitial lesion score: about 1.1
[5]; 10 mg/kg
  Mean total glomerular lesion score: about 1.1
  Mean total kidney lesion score: about 1.6
  Mean total tubular and interstitial lesion score: about 0.5
[5]; increasing dosage
  Kidney histology images (FIGS. 30H-30L), disease suppression: dose dependent improvement in disease suppression
